From ChEMBL document CHEMBL5291721, “A preclinical secondary pharmacology resource illuminates target-adverse drug reaction associations of marketed drugs” (Nat Commun, 2023) come the findings set out here.

Assay [1] addresses Beta-1 adrenergic receptor (Homo sapiens, UniProt P08588). It counts as functional.
Assay [2] concerns the target 5-hydroxytryptamine receptor 2B (Homo sapiens, UniProt P41595). It counts as functional, cell-based.
The target in assay [3] is Glutamate receptor ionotropic, NMDA 1 (Rattus norvegicus, UniProt P35439).
Another assay addresses Vasopressin V2 receptor (Homo sapiens, UniProt P30518).
The target in assay [4] is T1, Equilibrative nucleoside transporter 1 (Homo sapiens, UniProt Q99808).
T1 sequence (Q99808 whole entry): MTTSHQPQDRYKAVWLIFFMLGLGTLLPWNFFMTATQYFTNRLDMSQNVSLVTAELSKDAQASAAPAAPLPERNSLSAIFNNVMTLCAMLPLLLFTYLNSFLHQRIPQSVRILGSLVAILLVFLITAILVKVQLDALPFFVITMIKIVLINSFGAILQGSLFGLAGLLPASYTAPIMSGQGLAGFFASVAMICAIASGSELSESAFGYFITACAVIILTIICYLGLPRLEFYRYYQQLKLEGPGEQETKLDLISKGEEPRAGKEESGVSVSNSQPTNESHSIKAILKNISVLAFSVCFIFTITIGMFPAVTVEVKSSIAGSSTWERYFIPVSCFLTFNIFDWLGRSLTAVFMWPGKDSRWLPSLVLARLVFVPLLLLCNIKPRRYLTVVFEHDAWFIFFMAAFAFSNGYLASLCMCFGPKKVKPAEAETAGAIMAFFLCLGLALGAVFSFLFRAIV

Assay [5] has as its target 3',5'-cyclic-AMP phosphodiesterase 4D (Homo sapiens, UniProt Q08499). It counts as functional.
Assay [6] concerns the target T2, Muscarinic acetylcholine receptor M2 (Homo sapiens, UniProt P08172).
T2 sequence (P08172 whole entry): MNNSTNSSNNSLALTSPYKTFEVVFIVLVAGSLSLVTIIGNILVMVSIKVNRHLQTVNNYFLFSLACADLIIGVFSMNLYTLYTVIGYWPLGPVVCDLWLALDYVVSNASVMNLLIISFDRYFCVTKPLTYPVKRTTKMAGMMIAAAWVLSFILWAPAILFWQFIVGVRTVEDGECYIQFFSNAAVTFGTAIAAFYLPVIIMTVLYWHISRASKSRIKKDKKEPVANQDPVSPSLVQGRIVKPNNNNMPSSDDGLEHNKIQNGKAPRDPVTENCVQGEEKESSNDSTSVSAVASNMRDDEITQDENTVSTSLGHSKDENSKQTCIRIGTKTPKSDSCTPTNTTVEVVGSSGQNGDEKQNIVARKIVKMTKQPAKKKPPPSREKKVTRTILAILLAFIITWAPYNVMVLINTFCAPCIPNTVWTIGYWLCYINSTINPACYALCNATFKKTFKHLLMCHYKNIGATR
It counts as functional, cell-based.

The target in assay [7] is Gamma-aminobutyric acid receptor subunit alpha-1 (Rattus norvegicus, UniProt P62813).
The target of assay [8] is T3, Cholecystokinin receptor type A (Homo sapiens, UniProt P32238).
T3 sequence (P32238 whole entry): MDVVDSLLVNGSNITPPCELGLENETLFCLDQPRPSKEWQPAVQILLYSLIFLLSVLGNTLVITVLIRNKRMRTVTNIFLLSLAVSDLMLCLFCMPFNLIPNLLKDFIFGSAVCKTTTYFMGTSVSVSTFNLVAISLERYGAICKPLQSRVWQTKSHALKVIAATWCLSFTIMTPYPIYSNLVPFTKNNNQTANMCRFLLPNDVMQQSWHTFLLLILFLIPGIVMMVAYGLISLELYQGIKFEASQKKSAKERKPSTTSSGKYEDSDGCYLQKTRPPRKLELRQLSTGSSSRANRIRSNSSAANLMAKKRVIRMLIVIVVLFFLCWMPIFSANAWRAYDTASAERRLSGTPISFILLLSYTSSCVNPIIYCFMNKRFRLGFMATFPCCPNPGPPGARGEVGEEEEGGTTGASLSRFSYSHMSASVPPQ

The target of assay [9] is Voltage-gated inwardly rectifying potassium channel KCNH2 (Homo sapiens, UniProt Q12809). It counts as functional.
For assay [10], the target named is Growth hormone secretagogue receptor type 1 (Homo sapiens, UniProt Q92847).
In assay [11] the target is Delta-type opioid receptor (Homo sapiens, UniProt P41143).
In assay [12] the target is T2, Muscarinic acetylcholine receptor M2. It counts as functional, cell-based. The source holds these as a separate data set.
Assay [13] deals with T4, Alpha-2A adrenergic receptor (Homo sapiens, UniProt P08913).
T4 sequence (P08913 whole entry): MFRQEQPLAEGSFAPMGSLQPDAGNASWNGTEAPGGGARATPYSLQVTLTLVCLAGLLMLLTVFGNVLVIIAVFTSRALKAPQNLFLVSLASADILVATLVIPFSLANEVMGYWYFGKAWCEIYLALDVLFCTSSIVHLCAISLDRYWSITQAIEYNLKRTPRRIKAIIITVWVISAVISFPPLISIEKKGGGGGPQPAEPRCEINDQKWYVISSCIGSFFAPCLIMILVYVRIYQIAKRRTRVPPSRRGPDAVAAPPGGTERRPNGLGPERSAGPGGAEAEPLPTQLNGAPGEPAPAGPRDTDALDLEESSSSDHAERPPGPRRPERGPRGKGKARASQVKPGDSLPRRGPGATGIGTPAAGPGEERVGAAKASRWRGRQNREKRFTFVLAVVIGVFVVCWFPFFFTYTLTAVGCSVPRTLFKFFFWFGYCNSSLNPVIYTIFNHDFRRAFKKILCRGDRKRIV
It counts as functional, cell-based.
Further: assay procedure not described here.

Sequence of Voltage-gated inwardly rectifying potassium channel KCNH2 (Q12809 whole entry): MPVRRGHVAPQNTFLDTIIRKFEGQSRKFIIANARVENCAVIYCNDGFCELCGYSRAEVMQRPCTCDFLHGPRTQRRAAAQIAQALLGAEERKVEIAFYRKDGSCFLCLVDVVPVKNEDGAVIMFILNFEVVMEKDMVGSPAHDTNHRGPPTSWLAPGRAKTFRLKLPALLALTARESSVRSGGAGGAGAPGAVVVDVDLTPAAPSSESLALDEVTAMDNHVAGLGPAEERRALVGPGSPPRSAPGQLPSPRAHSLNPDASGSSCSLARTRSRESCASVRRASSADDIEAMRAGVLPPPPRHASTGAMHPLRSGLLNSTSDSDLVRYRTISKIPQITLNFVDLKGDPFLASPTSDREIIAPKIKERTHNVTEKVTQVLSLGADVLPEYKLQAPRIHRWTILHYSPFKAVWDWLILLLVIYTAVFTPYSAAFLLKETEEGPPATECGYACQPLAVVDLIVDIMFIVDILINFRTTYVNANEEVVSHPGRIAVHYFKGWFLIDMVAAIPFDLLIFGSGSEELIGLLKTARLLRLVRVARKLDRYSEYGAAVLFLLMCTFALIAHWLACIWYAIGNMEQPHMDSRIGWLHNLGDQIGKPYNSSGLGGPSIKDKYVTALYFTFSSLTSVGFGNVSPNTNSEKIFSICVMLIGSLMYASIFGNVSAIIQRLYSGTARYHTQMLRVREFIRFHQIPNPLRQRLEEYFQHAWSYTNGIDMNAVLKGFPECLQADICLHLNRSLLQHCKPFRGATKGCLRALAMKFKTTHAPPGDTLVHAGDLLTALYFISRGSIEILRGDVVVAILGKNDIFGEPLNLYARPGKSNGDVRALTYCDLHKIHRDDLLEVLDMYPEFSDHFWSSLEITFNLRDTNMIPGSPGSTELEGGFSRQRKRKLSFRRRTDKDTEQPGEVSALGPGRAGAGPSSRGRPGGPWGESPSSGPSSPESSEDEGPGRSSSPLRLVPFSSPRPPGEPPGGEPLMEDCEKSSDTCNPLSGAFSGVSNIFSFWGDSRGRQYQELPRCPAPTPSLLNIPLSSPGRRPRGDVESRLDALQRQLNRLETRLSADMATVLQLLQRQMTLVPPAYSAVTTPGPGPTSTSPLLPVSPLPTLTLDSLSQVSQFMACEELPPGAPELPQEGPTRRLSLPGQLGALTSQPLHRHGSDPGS
Sequence of Gamma-aminobutyric acid receptor subunit alpha-1 (P62813 whole entry): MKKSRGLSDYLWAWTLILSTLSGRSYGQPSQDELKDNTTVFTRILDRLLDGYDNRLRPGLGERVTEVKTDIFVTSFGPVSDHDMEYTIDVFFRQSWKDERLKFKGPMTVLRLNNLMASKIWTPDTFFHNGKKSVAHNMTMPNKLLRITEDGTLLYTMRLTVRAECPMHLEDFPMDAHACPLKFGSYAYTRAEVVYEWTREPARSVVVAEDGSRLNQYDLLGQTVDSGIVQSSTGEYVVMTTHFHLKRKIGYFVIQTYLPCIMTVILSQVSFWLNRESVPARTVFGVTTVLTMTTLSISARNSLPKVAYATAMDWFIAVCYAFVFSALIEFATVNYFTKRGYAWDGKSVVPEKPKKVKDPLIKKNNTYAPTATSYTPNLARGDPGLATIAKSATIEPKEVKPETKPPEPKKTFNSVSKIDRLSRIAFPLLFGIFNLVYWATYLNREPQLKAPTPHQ
Sequence of Growth hormone secretagogue receptor type 1 (Q92847 whole entry): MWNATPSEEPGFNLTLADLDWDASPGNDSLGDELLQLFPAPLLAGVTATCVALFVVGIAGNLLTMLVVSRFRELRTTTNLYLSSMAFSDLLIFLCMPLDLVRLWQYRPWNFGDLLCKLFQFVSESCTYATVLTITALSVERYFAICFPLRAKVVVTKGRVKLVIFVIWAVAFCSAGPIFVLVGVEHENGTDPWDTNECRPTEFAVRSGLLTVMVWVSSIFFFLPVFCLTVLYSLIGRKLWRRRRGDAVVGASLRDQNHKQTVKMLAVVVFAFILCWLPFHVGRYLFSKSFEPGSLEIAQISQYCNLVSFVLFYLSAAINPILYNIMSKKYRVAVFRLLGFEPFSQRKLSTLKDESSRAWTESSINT
Sequence of 3',5'-cyclic-AMP phosphodiesterase 4D (Q08499 whole entry): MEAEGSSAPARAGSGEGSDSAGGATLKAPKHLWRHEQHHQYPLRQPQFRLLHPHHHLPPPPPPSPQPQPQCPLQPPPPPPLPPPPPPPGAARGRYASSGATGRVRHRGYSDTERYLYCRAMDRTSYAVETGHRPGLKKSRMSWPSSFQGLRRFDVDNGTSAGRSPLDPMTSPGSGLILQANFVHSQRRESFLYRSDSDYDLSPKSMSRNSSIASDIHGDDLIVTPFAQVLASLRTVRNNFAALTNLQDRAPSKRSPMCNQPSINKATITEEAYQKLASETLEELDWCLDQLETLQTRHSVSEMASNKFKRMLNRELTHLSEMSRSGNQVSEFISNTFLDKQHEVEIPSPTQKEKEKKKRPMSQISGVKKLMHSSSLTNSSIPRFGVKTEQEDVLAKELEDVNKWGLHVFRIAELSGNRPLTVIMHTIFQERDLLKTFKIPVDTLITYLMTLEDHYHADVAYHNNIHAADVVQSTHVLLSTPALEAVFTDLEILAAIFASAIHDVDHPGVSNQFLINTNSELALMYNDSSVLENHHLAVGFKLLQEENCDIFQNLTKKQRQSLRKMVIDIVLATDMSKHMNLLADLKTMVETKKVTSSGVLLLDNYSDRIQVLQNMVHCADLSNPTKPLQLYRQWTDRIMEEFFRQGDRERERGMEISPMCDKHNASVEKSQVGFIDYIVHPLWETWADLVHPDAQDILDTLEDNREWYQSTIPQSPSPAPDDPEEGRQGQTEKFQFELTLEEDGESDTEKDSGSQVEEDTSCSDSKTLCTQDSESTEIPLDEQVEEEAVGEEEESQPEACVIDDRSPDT
Sequence of Beta-1 adrenergic receptor (P08588 whole entry): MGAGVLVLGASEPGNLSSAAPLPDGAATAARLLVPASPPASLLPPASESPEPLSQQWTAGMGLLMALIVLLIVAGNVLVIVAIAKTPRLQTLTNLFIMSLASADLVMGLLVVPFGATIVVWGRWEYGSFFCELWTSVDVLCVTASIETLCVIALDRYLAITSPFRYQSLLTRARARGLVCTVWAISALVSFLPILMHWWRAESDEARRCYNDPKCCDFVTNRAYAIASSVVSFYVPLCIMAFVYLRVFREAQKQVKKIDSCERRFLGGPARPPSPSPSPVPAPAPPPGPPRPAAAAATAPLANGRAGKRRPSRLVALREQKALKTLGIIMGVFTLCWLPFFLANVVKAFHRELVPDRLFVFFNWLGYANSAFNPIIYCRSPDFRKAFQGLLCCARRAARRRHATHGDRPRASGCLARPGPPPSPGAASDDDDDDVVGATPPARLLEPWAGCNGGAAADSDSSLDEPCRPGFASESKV
Sequence of Delta-type opioid receptor (P41143 whole entry): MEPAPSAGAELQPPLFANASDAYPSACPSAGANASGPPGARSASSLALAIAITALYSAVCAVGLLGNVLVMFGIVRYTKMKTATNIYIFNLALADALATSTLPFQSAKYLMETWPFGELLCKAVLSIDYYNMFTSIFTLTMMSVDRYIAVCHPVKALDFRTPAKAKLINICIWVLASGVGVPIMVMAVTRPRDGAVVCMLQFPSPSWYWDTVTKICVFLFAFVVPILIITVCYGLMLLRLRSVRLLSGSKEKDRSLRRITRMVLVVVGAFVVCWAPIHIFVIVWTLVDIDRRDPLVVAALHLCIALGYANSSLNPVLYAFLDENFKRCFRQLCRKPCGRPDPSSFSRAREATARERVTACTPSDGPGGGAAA
Sequence of 5-hydroxytryptamine receptor 2B (P41595 whole entry): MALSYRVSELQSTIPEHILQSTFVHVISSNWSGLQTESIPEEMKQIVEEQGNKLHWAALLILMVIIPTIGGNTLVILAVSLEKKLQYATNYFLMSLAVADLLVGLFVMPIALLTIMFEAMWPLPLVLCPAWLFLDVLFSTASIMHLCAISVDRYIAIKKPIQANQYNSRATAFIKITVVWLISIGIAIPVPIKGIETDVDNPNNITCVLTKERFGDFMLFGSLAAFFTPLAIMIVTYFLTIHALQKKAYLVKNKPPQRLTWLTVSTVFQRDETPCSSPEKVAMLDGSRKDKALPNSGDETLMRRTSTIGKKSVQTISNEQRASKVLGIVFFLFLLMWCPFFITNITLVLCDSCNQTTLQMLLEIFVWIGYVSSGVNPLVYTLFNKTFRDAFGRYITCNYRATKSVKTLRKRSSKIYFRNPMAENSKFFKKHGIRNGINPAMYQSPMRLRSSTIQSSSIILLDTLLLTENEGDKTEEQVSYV
Sequence of Vasopressin V2 receptor (P30518 whole entry): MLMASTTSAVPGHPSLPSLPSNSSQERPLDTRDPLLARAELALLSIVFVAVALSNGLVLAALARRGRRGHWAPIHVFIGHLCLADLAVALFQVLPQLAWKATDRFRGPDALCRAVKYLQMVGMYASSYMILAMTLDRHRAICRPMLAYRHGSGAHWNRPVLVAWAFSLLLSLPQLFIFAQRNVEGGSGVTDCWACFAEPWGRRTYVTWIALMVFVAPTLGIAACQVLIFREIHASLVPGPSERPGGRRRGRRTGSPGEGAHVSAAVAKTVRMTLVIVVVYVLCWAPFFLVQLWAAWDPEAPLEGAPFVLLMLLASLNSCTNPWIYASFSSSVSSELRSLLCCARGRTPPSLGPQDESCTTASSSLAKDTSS

The AC50 is the concentration at which the activity in the assay is half-maximal. A high value points to activity only at high concentration. `CC(CN(C)C)C(C)(O)Cc1ccc(Cl)cc1` (stereo not given) [CLOBUTINOL]: the AC50 in [1] is more than 30 µM; in assay [2], more than 10 µM; in assay [3], more than 10 µM; at Vasopressin V2 receptor, more than 30 µM; in [4], more than 30 µM; in assay [5], more than 30 µM. Also, the AC50 in [6] was more than 10 µM; in assay [7] it was more than 10 µM; in [8] it was more than 30 µM; in assay [9], 8.45 µM; in assay [10], more than 30 µM; in assay [11] it was more than 30 µM. Also, the AC50 in assay [12] and in assay [13] was more than 10 µM in each case.

Consider `CCOC(=O)C(C)(C)Oc1ccc(Cl)cc1` [CLOFIBRATE], for which the AC50 in [1] was more than 10 µM; in [2], more than 10 µM; in [3] it was more than 10 µM; on Vasopressin V2 receptor it was more than 30 µM; in assay [4], more than 30 µM; in assay [5], more than 30 µM. Further, the AC50 in assay [6] is more than 10 µM; in [7] it was more than 10 µM; in assay [8] it was more than 30 µM; in [9], more than 30 µM; in assay [10], more than 30 µM; in [11], more than 30 µM. Besides, the AC50 in assay [12] and in assay [13] was more than 10 µM in each case.

For the compound `C[C@@H]1C[C@H]2[C@@H]3CCC4=CC(=O)C=C[C@]4(C)[C@@]3(F)[C@@H](O)C[C@]2(C)[C@@]1(O)C(=O)CO` [DEXAMETHASONE], the AC50 in [1] is more than 30 µM; in assay [2] it was more than 10 µM; in assay [3] it was more than 10 µM; at Vasopressin V2 receptor, more than 30 µM; in [4], more than 30 µM; in assay [5], more than 30 µM. Besides, the AC50 in assay [6] is more than 10 µM; in assay [7], more than 10 µM; in assay [8], more than 30 µM; in assay [9] it was more than 30 µM; in [10] it was more than 30 µM; in assay [11], more than 30 µM. Moreover, the AC50 in assay [12] and in [13] was more than 10 µM in each case.

`CC(C)[C@@H](C)/C=C/[C@@H](C)[C@H]1CC[C@H]2/C(=C/C=C3\C[C@@H](O)CC[C@@H]3C)CCC[C@]12C` [DIHYDROTACHYSTEROL]: the half-maximal activity concentration (AC50) in assay [1] was more than 10 µM; in [2], more than 10 µM; in assay [3], more than 10 µM; on Vasopressin V2 receptor it was more than 10 µM; in assay [4], more than 10 µM; in [5] it was more than 30 µM. Also, the AC50 in [6] was more than 10 µM; in [7] it was more than 10 µM; in assay [8] it was more than 10 µM; in assay [9] it was more than 30 µM; in assay [10], more than 10 µM; in assay [11], more than 30 µM. For the same compound, the AC50 in [12] and in assay [13] was more than 10 µM each time.

For the compound `Oc1ccc(CCNCCCCCCNCCc2ccccc2)cc1O` [DOPEXAMINE], the AC50 in assay [1] was more than 30 µM; in [2] it was more than 30 µM; in [3] it was more than 30 µM; on Vasopressin V2 receptor, more than 30 µM; in assay [4], more than 30 µM; in assay [5] it was 29 µM. The AC50 in [6] is more than 30 µM; in [7] it was more than 30 µM; in [8] it was more than 30 µM; in assay [9], 2.9 µM; in [10] it was more than 30 µM; in assay [11], more than 30 µM. Besides, the half-maximal activity concentration (AC50) in assay [12] and in [13] was more than 30 µM throughout.

For the compound `CCN1CC(CCN2CCOCC2)C(c2ccccc2)(c2ccccc2)C1=O` (stereo not given) [DOXAPRAM], the AC50 (in assay [1]; in [2]; in assay [3]; on Vasopressin V2 receptor; in assay [4]; in [5]) was more than 30 µM each time. For the same compound, the AC50 in assay [6] was more than 30 µM; in assay [7] it was more than 30 µM; in assay [8], more than 30 µM; in [9], 10.5 µM; in assay [10] it was more than 30 µM; in [11], more than 30 µM. The concentration at half-maximal activity (AC50) in [12] and in assay [13] was more than 30 µM each time.

Regarding `CCCCOc1ccc(C(=O)CCN2CCCCC2)cc1` [DYCLONINE], the AC50 in [1] is more than 10 µM; in assay [2] it was more than 10 µM; in [3] it was more than 10 µM; on Vasopressin V2 receptor, more than 30 µM; in assay [4], more than 30 µM; in assay [5] it was 11 µM. The AC50 in assay [6] was more than 10 µM; in assay [7] it was more than 10 µM; in [8], more than 30 µM; in assay [9] it was 3.3 µM; in [10] it was more than 30 µM; in assay [11], more than 10 µM. Besides, the half-maximal activity concentration (AC50) in assay [12] and in [13] was more than 10 µM each time.

Consider `CC/C=C\C/C=C\C/C=C\C/C=C\C/C=C\CCCC(=O)OCC` [ICOSAPENT ETHYL], for which the AC50 in [1] was more than 30 µM; in [2] it was more than 30 µM; in [3], more than 30 µM; on Vasopressin V2 receptor, more than 10 µM; in [4], more than 30 µM; in assay [5], 12 µM. The AC50 in [6], in [7], in assay [8], in assay [9], in assay [10] and in assay [11] was more than 30 µM each time. Further, the AC50 in [12] and in assay [13] was more than 30 µM throughout.

In the case of `NNC(=O)c1ccncc1` [ISONIAZID], the AC50 (in assay [1]; in [2]; in assay [3]; on Vasopressin V2 receptor; in [4]; in assay [5]) was more than 30 µM in each case. In addition, the concentration at half-maximal activity (AC50) in [6], in [7], in assay [8], in assay [9], in [10] and in assay [11] was more than 30 µM each time. Besides, the AC50 in assay [12] and in assay [13] was more than 30 µM each time.

On to `COc1ccc(CN2CCN(C(c3ccc(F)cc3)c3ccc(F)cc3)CC2)c(OC)c1OC` [LOMERIZINE], for which the AC50 (in assay [1]; in [2]; in assay [3]; at Vasopressin V2 receptor; in assay [4]; in assay [5]) was more than 30 µM throughout. Further, the AC50 in assay [6] is 24 µM; in assay [7], more than 30 µM; in [8], more than 30 µM; in [9], 0.45 µM; in assay [10], 27 µM; in assay [11], more than 30 µM. For the same compound, the concentration at half-maximal activity (AC50) in assay [12] and in assay [13] was more than 30 µM throughout.
